Common to all, as to assay type: functional
Assay [1] in a line: Murine tumor cell selectivity was measured as zone unit differential between ([…]) murine cell line and (CFU) normal bone marrow in disk diffusion soft agar colony formation assay at a concentration of 5 ug/disk. A general note: A growth-free zone around the sample is the usual read-out of agar diffusion tests.
A short description of assay [2]: Human tumor selectivity was measured as zone unit differential between (H125) lung small cell carcinoma and (CEM) lymphocytic leukemia in disk diffusion soft agar colony formation assay at a concentration of 5 ug/disk.
A short description of assay [3]: Murine tumor cell selectivity was measured as zone unit differential between (C38) colon adenocarcinoma and ([…]) murine cell line in disk diffusion soft agar colony formation assay at a concentration of 5 ug/disk.
Assay [4] can be described thus: Murine tumor cell selectivity was measured as zone unit differential between (C38) colon adenocarcinoma and (CFU) normal bone marrow in disk diffusion soft agar colony formation assay at a concentration of 5 ug/disk.
A short description of assay [5]: Human tumor selectivity was measured as zone unit differential between (H116) colon tumor and (CEM) lymphocytic leukemia in disk diffusion soft agar colony formation assay at a concentration of 5 ug/disk.
A short description of assay [6]: Murine tumor cell selectivity was measured as zone unit differential between (C38) colon adenocarcinoma and ([…]) murine cell line in disk diffusion soft agar colony formation assay at a concentration of 19 ug/disk.
Assay [7] can be described thus: Murine tumor cell selectivity was measured as zone unit differential between (C38) colon adenocarcinoma and (CFU) normal bone marrow in disk diffusion soft agar colony formation assay at a concentration of 19 ug/disk.
Assay [8] can be described thus: Human tumor selectivity was measured as zone unit differential between (H125) lung small cell carcinoma and (CEM) lymphocytic leukemia in disk diffusion soft agar colony formation assay at a concentration of 19 ug/disk.
A short description of assay [9]: Human tumor selectivity was measured as zone unit differential between (H116) colon tumor and (CEM) lymphocytic leukemia in disk diffusion soft agar colony formation assay at a concentration of 19 ug/disk.
Assay [10] in a line: Murine tumor cell selectivity was measured as zone unit differential between ([…]) murine cell line and (CFU) normal bone marrow in disk diffusion soft agar colony formation assay at a concentration of 19 ug/disk.
Assay [11] can be described thus: Human tumor selectivity was measured as zone unit differential between (H125) lung small cell carcinoma and (CEM) lymphocytic leukemia in disk diffusion soft agar colony formation assay at a concentration of 1 ug/disk.
Assay [12] in a line: Human tumor selectivity was measured as zone unit differential between (H116) colon tumor and (CEM) lymphocytic leukemia in disk diffusion soft agar colony formation assay at a concentration of 1 ug/disk.
Assay [13] in a line: Murine tumor cell selectivity was measured as zone unit differential between ([…]) murine cell line and (CFU) normal bone marrow in disk diffusion soft agar colony formation assay at a concentration of 1 ug/disk.
Assay [14] is described as follows: Murine tumor cell selectivity was measured as zone unit differential between (C38) colon adenocarcinoma and (CFU) normal bone marrow in disk diffusion soft agar colony formation assay at a concentration of 1 ug/disk.
Assay [15] can be described thus: Murine tumor cell selectivity was measured as zone unit differential between (C38) colon adenocarcinoma and ([…]) murine cell line in disk diffusion soft agar colony formation assay at a concentration of 1 ug/disk.

SMILES strings stand for the structures.

As for `CC[C@H]1C=CCC[C@@]2(C[C@@H]3CC[C@@H]4[C@H](C(=O)OCc5ccccc5)[C@]5(CCC[C@@H](C)O5)NC(=[N+]34)N2)O1.[Cl-]`, the Selectivity in assay [1] turned out to be 50; in assay [2], 150; in assay [3], 50; in assay [4], 100; in assay [5] it was 50.

Regarding `CC[C@H]1C=CCC[C@@]2(C[C@@H]3CC[C@@H]4[C@H](C(=O)OCC5CC5)[C@]5(CCC[C@@H](C)O5)NC(=[N+]34)N2)O1.[Cl-]`, the Selectivity was found to be 100 in assay [1]; 150 in assay [2]; 200 in [3]; 300 in [4]; 100 in assay [5].

With `CC[C@H]1C=CCC[C@@]2(C[C@@H]3CC[C@@H]4C[C@]5(CCC[C@@H](C)O5)NC(=[N+]43)N2)O1.[Cl-]`, the Selectivity in assay [6] was -350; in assay [7], 0; in assay [8], 150; in assay [9], 0; in [10] it was 350.

As for `C=CCOC(=O)[C@H]1[C@H]2CC[C@H]3C[C@@]4(CCC=C[C@H](CC)O4)NC(=[N+]32)N[C@@]12CCC[C@@H](C)O2.[Cl-]`, the Selectivity in assay [11] stood at 0; in assay [12] it was 0; in assay [13] it was 100; in assay [14] it was 450; in assay [15] it was 350.

`CC[C@H]1C=CCC[C@@]2(C[C@@H]3CC[C@@H]4[C@H](C(=O)OCCC(C)C)[C@]5(CCC[C@@H](C)O5)NC(=[N+]34)N2)O1.[Cl-]`: the Selectivity in assay [1] is -50; in assay [2], 150; in [3] it was 50; in [4] it was 0; in assay [5], 50.

Turning to `CC[C@H]1C=CCC[C@@]2(C[C@@H]3CC[C@@H]4[C@H](C(=O)OC/C=C/c5ccccc5)[C@]5(CCC[C@@H](C)O5)NC(=[N+]34)N2)O1.[Cl-]`, the Selectivity was 150 in assay [6]; 100 in [7]; 200 in assay [8]; 200 in assay [9]; -50 in assay [10].

As for `CC[C@H]1C=CCC[C@@]2(C[C@@H]3CC[C@@H]4[C@@H](C(=O)OC/C=C/c5ccccc5)[C@]5(CCC[C@@H](C)O5)NC(=[N+]34)N2)O1.[Cl-]`, the Selectivity in [1] was 50; in assay [2] it was 200; in [3], 50; in assay [4], 100; in assay [5] it was 100.

Regarding `CC[C@H]1C=CCC[C@@]2(C[C@@H]3CC[C@@H]4[C@H](C(=O)O)[C@]5(CCC[C@@H](C)O5)NC(=[N+]34)N2)O1.[Cl-]`, the Selectivity in [6] was -250; in assay [7], -50; in assay [8] it was 100; in [9] it was 50; in assay [10], 200.

`CCOC(=O)[C@H]1[C@H]2CC[C@H]3C[C@@]4(CCC=C[C@H](CC)O4)NC(=[N+]32)N[C@@]12CCC[C@@H](C)O2.[Cl-]`: the Selectivity in [1] is 200; in assay [2], 100; in [3] it was -50; in assay [4], 150; in assay [5], 0.

(Values after ChEMBL document CHEMBL1147463, “Synthesis and anticancer activity of side chain analogs of the crambescidin alkaloids” (2004).)
